Test system: PAXF1657 EV
Assay: 7-day cellular proliferation assay (CellTiter-Glo), PAXF1657 EV
Format: cell-based
Settings: 168 h, 7-day, read-out: 7-day proliferation assay: IC50 GeoMean (uM) [Cell Line: PAXF1657 EV]
Procedure, shortened: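 PAXF1657 isogenic lines (GRK2-overexpressing vs empty vector; CRISPR GRK2 knockout vs non-targeting control clones) seeded 500 cells/well in RPMI1640/10% FBS and treated next day with 10-point dilutions, 30 μM-0.0002 μM final, 0.3% DMSO. Media with compound refreshed after 3 days; viability read by CellTiter-Glo luminescence at day 7.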

Row | Structure (SMILES) | IC50
1 | Cc1ncsc1-c1ccc(CNC(=O)[C@@H]2C[C@@H](O)CN2C(=O)[C@@H](NC(=O)COCCOCCCCCCOc2cccc(CNC(=O)c3cccc(NCc4nnc(-c5ccncn5)n4C)c3)c2)C(C)(C)C)cc1 [Compound D101] | < 1 µM
2 | Cc1ncsc1-c1ccc(CNC(=O)[C@@H]2C[C@@H](O)CN2C(=O)[C@@H](NC(=O)COCCOCCOCCOCCOCCOCCCCCCOc2cccc(CNC(=O)c3cccc(NCc4nnc(-c5ccncn5)n4C)c3)c2)C(C)(C)C)cc1 [Compound D100] | > 10 µM

Reference: patent publication US20240174637A1, “DEGRADERS OF GRK2 AND USES THEREOF” (Sonata Therapeutics, Inc., priority 2021, published 2024)
